Test results: patent publication US20180298405A1, “METHODS AND COMPOSITIONS TO INCREASE HUMAN SOMATIC CELL NUCLEAR TRANSFER (SCNT) EFFICIENCY BY REMOVING HISTONE H3-LYSINE TRIMETHYLATION, AND DERIVATION OF HUMAN NT-ESC” (CHILDREN'S MEDICAL CENTER CORPORATION, priority 2015, published 2018)
“And” between values parts separate entries of the source, which are not always exact repeats. Equal entries are not always repeated.

Experiments:
[1] = system: human SCNT embryos; assay: Preimplantation development of KDM4A-assisted human SCNT embryos; format: cell-based; details: for embryos reaching the blastocyst stage: day 6; for embryos developed to the expanded blastocyst stage: day 7
Method: All MII stage human oocytes with distinctive 1st polar bodies were enucleated under an inverted microscope equipped with a Poloscope (Oosight®, Cambridge Research & Instrumentation). The enucleation and nuclear donor cell fusion were carried out in the presence of caffeine (1.25 mM). For enucleation, oocytes were pre-incubated in Global HTF medium with Hepes (Life Global) containing 0.5 μg/ml cytochalasin B and caffeine (1.25 mM) for 5 minutes. Then, the spindle complex was removed using a PIEZO actuator (Primetech, Japan). Dermal fibroblast cells resuspended in a drop containing HVJ-E extract (Cosmo Bio, USA) were inserted into the perivitelline space of the enucleated oocytes. The reconstructed oocytes were kept in the manipulation medium containing caffeine (1.25 mM) until the cell fusion was confirmed, and then the reconstructed oocytes were transferred into Global medium 10% SPS, and incubated for 1-1.5 hours before activation. Activation was carried out by applying electropulses (2×50 μs DC pulses, 2.7 kV/cm) in 0.25M d-sorbitol buffer and 6-DMAP (2 mM, 4 hrs) as previously described (Tachibana et al., 2013). The activated embryos were transferred to Global 10% SPS medium supplemented with Trichostatin A (TSA, 10 nM, Sigma) for 12 hrs, then the embryos were transferred to Global 10% FBS without TSA and cultured for up to 7 days in an incubator with atmosphere of 6% CO2/5% O2/89% N2 at 37° C. The culture medium was changed on day 3.
For mRNA injection, the activated SCNT embryos were washed and cultured in Global 10% SPS for 1 hr before the KDM4A mRNA injection. Approximately 10 pl of KDM4A mRNA were injected into the SCNT embryos at 5 hours after activation in Hepes-HTF 10% SPS medium using a PIEZO actuator as described previously (Matoba et al., 2014). More details on donor cell preparation, mRNA preparation, RNA-seq and other procedures can be found in the Supplemental Experimental Procedures.
In vitro transcription was performed as described previously (Matoba et al., 2014). Briefly, full length human KDM4A/JHDM3A cDNA was cloned into a pcDNA3.1 plasmid containing poly(A)83 at the 3′ end of cloning site. The catalytic defective mutant form of KDM4A (H188A) was generated using PrimeSTAR mutagenesis kit (TAKARA # R045A). mRNA was synthesized using the mMESSAGE mMACHINE T7 Ultra Kit (Life technologies # AM1345). The synthesized mRNA was dissolved in nuclease-free water. The concentration of mRNA was measured by NanoDrop ND-1000 spectrophotometer (NanoDrop Technologies). Aliquots of mRNA were stored at −80° C. until use.
Ovarian stimulation was carried out as described previously (Chung et al., 2014). Briefly, a combination of human recombinant follicle-stimulating hormone (rFSH, 225-3001U, Merck) and human menopausal gonadotropin (Menopur 751U, Ferring) were used to stimulate ovary for 9-11 days with GnRH antagonist (Ganirelix acetate, Merck) suppression. Lupron 4 mg was used to mimic the LH surge when 1 or 2 follicles reached 18 mm in diameter. All medications were administered through subcutaneous injections. Transvaginal oocyte retrieval was performed approximately 36 hours after the Lupron injection. The collected COCs were denuded with 5080 IU/ml hyaluronidase (Sigma-Aldrich) within 1-2 hours after retrieval. Then, they were kept in Global medium supplemented with 10% serum protein supplement (SPS; Cooper Surgical) (IVF Online) until use.
The procedures for somatic nuclear donor cell preparation are essentially the same as previously described (Chung et al., 2014). Briefly, the skin explant was mechanically minced and treated with collagenase (type I, 200 unit/ml, Worthington-biochem) in DMEM supplemented with 10 μg/ml penicillin-streptomycin solution to dissociate the skin tissue. […]

[2] = system: human SCNT blastocysts; assay: Derivation of human NTK-ESCs from KDM4A-assisted SCNT blastocysts; format: cell-based
Method: All expanded blastocysts were treated with acid Tyrode solution to remove the zona pellucida, then the entire blastocysts (without removing trophectoderm) were plated onto mitotically-inactivated mouse fibroblasts (MEFs, Global Stem Inc.) in knockout-DMEM supplemented with Knockout Serum Replacement (10% SR, Invitrogen), FBS (10% Hyclone), bFGF (30 ng/ml), human LIF (2000 units/ml, Sigma-Aldrich), and ROCK inhibitor (1 uM, Sigma-Aldrich). The derivation medium was not changed for the next 3 days, then 1/2 medium was replaced with fresh medium without the ROCK inhibitor daily as previously described (Chung et al., 2008). After 3 passages, the amount of FBS was reduced to 2%, replacing it with SR. After 5 passages, the ES cells were cultured in DMEM/F12 supplemented with FGF (8 ng/ml, Invitrogen), SR (18%, Invitrogen), and FBS (2% Hyclone). After the 10 passages, the ES cells were maintained in DMEM/F12 supplemented with FGF (8 ng/ml) and 20% SR.

[3] = pooled four oocyte donors, per 2-cell
[4] = pooled four oocyte donors, per 2-cell, listed as KDM4A

Substance: KDM4A mRNA: in vitro transcribed mRNA of full length human KDM4A/JHDM3A cDNA, an H3K9me3 demethylase (SEQ ID NO: 1)
- oocyte donors whose oocytes supported blastocyst formation ([1]; four oocyte donors tested, TSA present): all four donors tested supported blastocyst formation
- embryos reaching the blastocyst stage [1, 3]: 26.8% and 27%
- embryos reaching the blastocyst stage [1, 4]: 26.8%
- embryos developed to the expanded blastocyst stage [1, 3]: 14.3%
- embryos developed to the expanded blastocyst stage [1, 4]: 14% and 14.3%
- developmental rate to 8-cell stage [1, 3]: 71.4%
- developmental rate to morula stage [1, 3]: 32%
- developmental rate to morula stage [1, 4]: 32.1%
- cleavage efficiency to form 2-cell embryos ([1]; pooled oocytes of four donors, AMD patient fibroblast donors, mRNA injected 5 h after activation, per 1-cell): 88.9%
- increase in hSCNT embryos developing into blastocysts ([1]; versus control hSCNT embryos (4.2%)): greater than 20%
- increase in embryos reaching expanded blastocyst stage ([1]; versus non-treated human SCNT embryos (0%)): 14%
- stable NT-ESC lines derived ([2]; after five passages, from eight expanded blastocysts): four stable NT-ESC lines
- expanded blastocysts attached to MEF feeder cells and initiated outgrowth ([2]; of eight expanded blastocysts): Seven out of the eight
